From PMC10424186 (Journal of Medicinal Chemistry, 2023)
Read-outs that look alike come from different tables or passages of the source.

Columns and labels:
[1] = system: PC3 prostate adenocarcinoma cells; assay: MTS cell viability assay, PC3; assay type: cell-based; settings: 1.0–100 μM, 72 h
Description: (§1) A biochemical readout of JMJD5 arginine residue hydroxylase activity in cells is not available; we thus focused our studies on biological readouts previously linked to JMJD5 function in order to investigate cellular responses resulting from JMJD5 inhibitor treatment. JMJD5 loss of function by RNA interference is reported to affect tumor cell proliferation and viability;[16],[18],[20],[21] we therefore studied the effects of 19i and 19j on the growth of three different tumor cell lines.
(§2) (a) U2OS bone osteosarcoma, (b) A549 lung adenocarcinoma, and (c) PC3 prostate adenocarcinoma cells were treated with the indicated doses of 19i and 19j (1.0, 5.0, 10, 50, and 100 μM) for 72 h and then tested for viability using the 3-(4,5-dimethylthiazol-2-yl)-5-(3-carboxymethoxyphenyl)-2-(4-sulfophenyl)-2H-tetrazolium (MTS) assay. A549 cells were treated with 19i or 19j (1.0 μM) for 24 h, then stained with (d) propidium iodide and analyzed by FACS or (e) DAPI staining for nuclei (left) and anti-53BP1 (for 53BP1 bodies, right). Cells were counted for 53BP1 bodies (f) and micronuclei (g). […] For 53BP1 bodies, a minimum of 300 cells were counted per sample. For micronuclei, a minimum of 500 cells were counted per sample. […]
(§3) Cell proliferation/viability was measured using MTS (CellTiter 96 Aqueous One 667 Solution Cell Proliferation Assay, Promega) and CyQUANT (Thermo Fisher) assays. […]

A549 cells [2] = assay: Replication stress: 53BP1 bodies and micronuclei (immunofluorescence/DAPI); assay type: cell-based; settings: 1.0 μM, 24 h
Experimental: (§4) (a) U2OS bone osteosarcoma, (b) A549 lung adenocarcinoma, and (c) PC3 prostate adenocarcinoma cells were treated with the indicated doses of 19i and 19j (1.0, 5.0, 10, 50, and 100 μM) for 72 h and then tested for viability using the 3-(4,5-dimethylthiazol-2-yl)-5-(3-carboxymethoxyphenyl)-2-(4-sulfophenyl)-2H-tetrazolium (MTS) assay. A549 cells were treated with 19i or 19j (1.0 μM) for 24 h, then stained with (d) propidium iodide and analyzed by FACS or (e) DAPI staining for nuclei (left) and anti-53BP1 (for 53BP1 bodies, right). Cells were counted for 53BP1 bodies (f) and micronuclei (g). Data represent mean ± SEM from three (a–d) or four (f–g) independent replicates. For 53BP1 bodies, a minimum of 300 cells were counted per sample. For micronuclei, a minimum of 500 cells were counted per sample. Statistical analyses used one-way ANOVA with Tukey’s post hoc test [with p-value ≤ 0.01 (**)].
(§5) Because JMJD5 RNA interference has been associated with disturbances in the cell cycle,[1],[2],[81],[82] we measured phase distribution by flow cytometry in A549 cells (Figure 6d). Treatment with 19i or 19j for 24 h caused a reduction in G1-phase cells, with a corresponding increase in S- and G2/M-phase cells. […] We have recently reported that JMJD5 loss of function induces replication stress,[14] which is defined as a perturbation that slows or stalls DNA replication.[83] Unresolved replication stress can be measured by an increase in G1-phase 53BP1 “bodies” and micronuclei (Figure 6e), which are extranuclear DNA bodies that result from DNA cleavage and genome instability following replication stress.
Cells on coverslips were pre-extracted on ice for 5 min using a buffer containing 20 mM NaCl, 3 mM MgCl2, 300 mM sucrose, 10 mM PIPES, and 0.5%v/v Triton X-100 and fixed using 4%v/v paraformaldehyde (PFA) in PBS for 15 min at ambient temperature. Cells were then permeabilized in 0.1%v/v Triton X-100 in PBS at ambient temperature for 10 min and blocked in 1%w/v bovine serum albumin (BSA) in PBS for 1 h at ambient temperature. Coverslips were incubated with anti-53BP1 antibody (Bio-Techne, NB100-904V) diluted in 1%w/v BSA in PBS at ambient temperature for 1 h in the dark. Coverslips were then washed three times with cold 1%w/v BSA in PBS following incubation for 1 h with secondary antibodies (anti-mouse 555 nm A31570 or anti-rabbit 488 nm A11070, Thermo Fisher). The coverslips were washed three times with cold PBS and incubated for 10 min with 4′,6-diamidino-2-phenylindole (DAPI) (Invitrogen) to stain for nuclei. Prolong Gold Antifade Reagent (Cell Signaling Technology) was used to mount the coverslips onto microscope slides. Images were taken using 40× objective on a Leica DM6000 fluorescent microscope and processed with ImageJ.

[3] = system: U2OS bone osteosarcoma cells; assay: MTS cell viability assay, U2OS; assay type: cell-based; settings: for CC50: Homo sapiens
Description: as §1
as §4, with “(**)]. […]” for “(**)].”
Cell proliferation/viability was measured using MTS (CellTiter 96 Aqueous One 667 Solution Cell Proliferation Assay, Promega) and CyQUANT (Thermo Fisher) assays. […] Plates were incubated for 1 h at 37 °C under 5% CO2, protected from light, and then the absorbance was measured at 490 nm using an EnSpire Multimode plate reader (PerkinElmer). […] The cells were incubated for 1 h at 37 °C under 5% CO2, protected from light; fluorescence was then measured with excitation at ∼485 nm and emission detection at ∼530 nm using an EnSpire Multimode plate reader.

[4] = system: U2OS bone osteosarcoma cells; assay: CyQuant viability assay (DNA content), U2OS; assay type: cell-based; settings: 1.0–100 μM, 72 h
Experimental: Cell proliferation/viability was measured using MTS (CellTiter 96 Aqueous One 667 Solution Cell Proliferation Assay, Promega) and CyQUANT (Thermo Fisher) assays. CellTiter 96 Aqueous MTS reagent (Promega) and phenazine methosulfate (Sigma-Aldrich) were dissolved in phosphate-buffered saline (PBS) according to the manufacturer’s protocol. The MTS working reagent was made according to the manufacturer’s protocol and added to each well containing the cells. Plates were incubated for 1 h at 37 °C under 5% CO2, protected from light, and then the absorbance was measured at 490 nm using an EnSpire Multimode plate reader (PerkinElmer). For the cyQUANT assay, the reagents were prepared according to the manufacturer’s protocol and added to the cells. The cells were incubated for 1 h at 37 °C under 5% CO2, protected from light; fluorescence was then measured with excitation at ∼485 nm and emission detection at ∼530 nm using an EnSpire Multimode plate reader.
viability of U2OS bone osteosarcoma cells.
derivatives 19i and 19j (1.0, 5.0, 10, 50, 100 μM) for 72 h and then tested for viability using the CyQuant assay,
which measures DNA content. Data represent mean ± SEM from independent experiments.
(1 picture or pasted object on this page, not shown here)

A549 cells [5] = assay: Cell-cycle analysis (propidium iodide, FACS); assay type: cell-based; settings: 1.0 μM, 24 h
Experimental: as §4, §5
Cell-cycle analyses were performed using A549 cells fixed in ice-cold 70%v/v ethanol. Cells were incubated with 100 μg/mL RNase A (Thermo Fisher Scientific), stained with 20 μg/mL propidium iodide, and then analyzed using Beckman Coulter CytoFLEX S. Representative FACS profiles were generated using Beckman CytExpert software.

[6] = system: A549 lung adenocarcinoma cells; assay: MTS cell viability assay, A549; assay type: cell-based; settings: Homo sapiens, 72 h, read-out: half-maximum cytotoxicity concentration (CC50)
Description: as §1, §2, §3

RIOX2 = biological target: T1, RIOX2 (Homo sapiens, UniProt Q8IUF8); assay: SPE-MS RIOX2 inhibition assay (RPL27A31–49 hydroxylation); assay type: biochemical; settings: Table 2; His6-RIOX2 26–465 […], 5.0 μM RPL27A31–49; n = 2, mean ± SD
T1 construct: N-terminally His6-tagged RIOX2_26–465; made in house; host or cells: Escherichia coli
Experimental: Cosubstrate/cofactor stock solutions [L-ascorbic acid/LAA: 50 mM in MQ-grade water; 2-oxoglutarate/2OG: 10 mM in MQ-grade water; ammonium iron(II) sulfate hexahydrate/FAS/(NH4)2Fe(SO4)2·6H2O: 400 mM in 20 mM HCl diluted to 1 mM in MQ-grade water] were freshly prepared from commercial solids (Sigma-Aldrich) on the day the assays were performed. […] For JMJD5, PHD2, FIH, RIOX2, and AspH, substrate hydroxylation was monitored (+16 Da mass shift), while for the KDM4E substrate, demethylation was monitored (−14 Da mass shift) by SPE-MS.

KDM4E = biological target: T2, KDM4E (Homo sapiens, UniProt B2RXH2); assay: SPE-MS KDM4E inhibition assay (demethylation of H3 1–15 K9me3); assay type: biochemical; settings: Table 2, 10.0 μM H3 1–15 K9me3, n = 2, mean ± SD
T2 construct: made in house; host or cells: Escherichia coli
T2 sequence (B2RXH2 1-506): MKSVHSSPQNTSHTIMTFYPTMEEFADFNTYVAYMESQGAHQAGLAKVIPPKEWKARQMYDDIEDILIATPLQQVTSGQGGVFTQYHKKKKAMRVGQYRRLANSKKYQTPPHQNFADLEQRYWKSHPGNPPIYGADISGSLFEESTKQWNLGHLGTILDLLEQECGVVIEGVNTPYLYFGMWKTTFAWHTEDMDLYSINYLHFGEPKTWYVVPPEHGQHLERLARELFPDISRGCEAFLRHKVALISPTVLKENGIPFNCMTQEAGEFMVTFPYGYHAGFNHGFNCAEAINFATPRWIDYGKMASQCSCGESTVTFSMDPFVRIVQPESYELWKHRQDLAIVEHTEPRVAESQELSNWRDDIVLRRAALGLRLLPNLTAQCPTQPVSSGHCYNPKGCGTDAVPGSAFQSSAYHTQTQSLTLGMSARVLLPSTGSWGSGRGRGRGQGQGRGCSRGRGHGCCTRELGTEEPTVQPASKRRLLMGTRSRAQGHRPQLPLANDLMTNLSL
Experimental: (§6) H3_1-15K9me3, histone 3 (H3), residues 1–15 with K9 of H3-bearing three methyl groups at the N^ε-position, K4 of H3 substituted by an alanine residue, and K14 of H3 by an isoleucine residue,[73] for KDM4E; and RPL27A, residues 31–49, for RIOX2 (Mina53).[44]
(§7) Cosubstrate/cofactor stock solutions [L-ascorbic acid/LAA: 50 mM in MQ-grade water; 2-oxoglutarate/2OG: 10 mM in MQ-grade water; ammonium iron(II) sulfate hexahydrate/FAS/(NH4)2Fe(SO4)2·6H2O: 400 mM in 20 mM HCl diluted to 1 mM in MQ-grade water] were freshly prepared from commercial solids (Sigma-Aldrich) on the day the assays were performed. The JMJD5,[42] PHD2,[70] FIH,[70] KDM4E,[72],[73] RIOX2,[44] and AspH[45] […] For JMJD5, PHD2, FIH, RIOX2, and AspH, substrate hydroxylation was monitored (+16 Da mass shift), while for the KDM4E substrate, demethylation was monitored (−14 Da mass shift) by SPE-MS.

AspH = biological target: T3, AspH (Homo sapiens, UniProt Q12797); assay: SPE-MS AspH inhibition assay (hFX-CP101–119 hydroxylation); assay type: biochemical; settings: Table 2; His6-AspH315–758 0.05 μM, 1.0 μM hFX-CP101–119; n = 2, mean ± SD
T3 construct: N-terminally His6-tagged AspH315–758; made in house; host or cells: Escherichia coli
T3 sequence (Q12797 315-758): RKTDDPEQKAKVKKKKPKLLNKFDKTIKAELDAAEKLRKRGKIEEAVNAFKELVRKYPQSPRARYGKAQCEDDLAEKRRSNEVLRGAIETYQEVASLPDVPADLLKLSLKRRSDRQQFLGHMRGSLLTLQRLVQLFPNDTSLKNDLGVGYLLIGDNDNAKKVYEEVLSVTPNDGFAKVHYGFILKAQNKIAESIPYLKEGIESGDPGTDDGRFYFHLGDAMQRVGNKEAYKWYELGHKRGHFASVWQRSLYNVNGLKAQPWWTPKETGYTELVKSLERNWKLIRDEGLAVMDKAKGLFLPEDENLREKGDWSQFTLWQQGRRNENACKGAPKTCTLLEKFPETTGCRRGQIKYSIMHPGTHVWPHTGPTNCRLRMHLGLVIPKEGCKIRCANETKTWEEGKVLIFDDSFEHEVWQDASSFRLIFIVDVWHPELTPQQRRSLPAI
Experimental: as §6, §7

FIH = biological target: T4, FIH (Homo sapiens, UniProt Q9NWT6); assay: SPE-MS FIH inhibition assay (HIF-1α CAD hydroxylation); assay type: biochemical; settings: Table 2; His6-FIH 0.15 μM, 5.0 μM HIF-1α CAD; n = 2, mean ± SD
T4 construct: made in house; host or cells: Escherichia coli
Experimental: HIF-α CAD, residues 788–822, for FIH;[70]
Cosubstrate/cofactor stock solutions [L-ascorbic acid/LAA: 50 mM in MQ-grade water; 2-oxoglutarate/2OG: 10 mM in MQ-grade water; ammonium iron(II) sulfate hexahydrate/FAS/(NH4)2Fe(SO4)2·6H2O: 400 mM in 20 mM HCl diluted to 1 mM in MQ-grade water] were freshly prepared from commercial solids (Sigma-Aldrich) on the day the assays were performed. […] FIH,[70] […] SPE-MS inhibition assays were performed as described in the cited literature, using isolated recombinant human enzymes (His6-thioredoxin-JMJD5,[42] His6-PHD2_181–426,[70] His6-FIH,[70] His6-KDM4E,[72],[73] His6-RIOX2_26–465,[87],[88] and His6-AspH315–758[48],[80]) and synthetic peptide substrates (RPS6_128–148 for JMJD5;[42] HIF-α CODD558–574 for PHD2;[70] HIF-α CAD788–822 for FIH;[70] H3_1–15K9me3 for KDM4E;[73] RPL27A31–49 for RIOX2;[44],[71] and hFX-CP101–119 for AspH;[45],[48] see above). For JMJD5, PHD2, FIH, RIOX2, and AspH, substrate hydroxylation was monitored (+16 Da mass shift), while for the KDM4E substrate, demethylation was monitored (−14 Da mass shift) by SPE-MS.

PHD2 = biological target: T5, PHD2 (Homo sapiens, UniProt Q9GZT9); assay: SPE-MS PHD2 inhibition assay (HIF-1α CODD hydroxylation); assay type: biochemical; settings: Table 2; PHD2 181–426 […], 5.0 μM HIF-1α CODD; n = 2, mean ± SD
T5 construct: His6-PHD2_181–426; made in house; host or cells: Escherichia coli
Experimental: as §6, §7

T5 sequence (Q9GZT9 181-426): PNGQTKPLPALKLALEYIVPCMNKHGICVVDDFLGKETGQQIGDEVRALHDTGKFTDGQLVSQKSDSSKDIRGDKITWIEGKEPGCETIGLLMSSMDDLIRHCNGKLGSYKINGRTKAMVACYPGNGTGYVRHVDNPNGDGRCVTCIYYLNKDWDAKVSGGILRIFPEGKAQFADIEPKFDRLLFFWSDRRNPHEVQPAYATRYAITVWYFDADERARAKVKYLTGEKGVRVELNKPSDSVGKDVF
T4 sequence (Q9NWT6 whole entry): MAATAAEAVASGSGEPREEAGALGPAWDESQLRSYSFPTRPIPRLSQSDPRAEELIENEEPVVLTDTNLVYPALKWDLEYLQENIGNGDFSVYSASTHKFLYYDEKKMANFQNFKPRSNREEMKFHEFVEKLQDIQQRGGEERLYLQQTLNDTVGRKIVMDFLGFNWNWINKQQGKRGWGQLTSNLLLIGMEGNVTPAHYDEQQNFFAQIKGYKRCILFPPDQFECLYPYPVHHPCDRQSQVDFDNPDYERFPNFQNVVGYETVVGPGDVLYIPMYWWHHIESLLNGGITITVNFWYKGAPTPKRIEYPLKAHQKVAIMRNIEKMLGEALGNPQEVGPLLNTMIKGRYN
T1 sequence (Q8IUF8 26-465): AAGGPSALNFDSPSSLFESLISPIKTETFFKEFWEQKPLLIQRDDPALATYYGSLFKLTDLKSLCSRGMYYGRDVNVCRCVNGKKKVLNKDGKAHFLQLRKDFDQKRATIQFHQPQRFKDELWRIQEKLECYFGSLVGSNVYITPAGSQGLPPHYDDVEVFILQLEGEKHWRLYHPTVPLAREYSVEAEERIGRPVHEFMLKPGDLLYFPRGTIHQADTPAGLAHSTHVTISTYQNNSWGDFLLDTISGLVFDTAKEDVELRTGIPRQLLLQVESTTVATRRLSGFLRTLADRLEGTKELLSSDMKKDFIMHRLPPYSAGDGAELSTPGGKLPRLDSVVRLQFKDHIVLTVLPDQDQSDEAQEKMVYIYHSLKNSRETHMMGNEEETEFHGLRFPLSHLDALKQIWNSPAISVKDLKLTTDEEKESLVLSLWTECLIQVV

Structure (SMILES) | effect on cell growth (in words) [1] | 53BP1 bodies (A549 cells [2]) | micronuclei (A549 cells [2]) | effect on cell growth (in words) ([3]; 1.0–100 μM, 72 h, MTS) | CC50 ([3]; supplementary CSV, read-out: CC50 U2OS cells) [µM] | viability (CyQuant, in words) [4] | G1-phase cells (A549 cells [5]) | S- and G2/M-phase cells (A549 cells [5]) | Sub-G1-phase cell numbers (A549 cells [5]) | CC50 [6] [µM] | CC50 ([3]; 72 h, MTS, read-out: half-maximum cytotoxicity concentration (CC50)) [µM] | IC50 (RIOX2) [µM] | IC50 (KDM4E) [µM] | IC50 (AspH) [µM] | IC50 (FIH) [µM] | IC50 (PHD2) [µM]
COC(=O)c1cc(C(=O)OC)c(NCc2ccccc2OC)cn1 [Compound 19i] | did not significantly affect | significantly induced | significantly induced | did not significantly affect | > 100 | reduced viability | reduction | increase | increased | 10.7 | – | – | – | – | – | –
COC(=O)c1cc(C(=O)OC)c(NCc2ccccc2C2CC2)cn1 [Compound 19j] | – | significantly induced | significantly induced | – | – | reduced viability | reduction | increase | increased | 2.1 | 10 | – | – | – | – | –
O=C(O)c1cc(C(=O)O)c(NCc2ccccc2C2CC2)cn1 [Compound 20j, 5-((2-cyclopropylbenzyl)amino)pyridine-2,4-dicarboxylic acid] | – | – | – | – | – | – | – | – | – | – | – | > 50 | > 50 | 8.9 ± 5 | > 50 | > 50
